Measurements as given in patent US20150140002A1, “USE OF A PCSK9 INHIBITOR TO TREAT […]” (Sanofi, priority 2013, published 2015).
Like-named read-outs stand apart in the source and are kept apart here. Marks after values point to notes of the source that are not given here.

Experiments:
[1] = test system: patients with hypercholesterolemia at moderate cardiovascular (CV) risk; conditions: in vivo
Description: The clinical laboratory data consisted of urinalysis and blood analysis, hematology (RBC count, red blood cell distribution width (RDW), reticulocyte count, hemoglobin, hematocrit, platelets, WBC count with differential blood count), standard chemistry (glucose, sodium, potassium, chloride, bicarbonate, calcium, phosphorous, urea nitrogen, creatinine, uric acid, total protein, LDH, albumin, γ Glutamyl Transferase [γGT]), Hepatitis C antibody, liver panel (ALT, AST, ALP, and total bilirubin), and CPK.
Safety endpoints—Vital signs measurement: Vital signs included: HR, systolic and diastolic BP in sitting position.
The safety analysis included all randomized and treated patients. Safety data were analyzed by descriptive statistics.

[2] = test system: patients with primary hypercholesterolemia (heFH and non-FH) who are intolerant to statins; test: Example 3: randomized double-blind trial mAb316P versus ezetimibe (atorvastatin calibrator arm), lipid parameters; format: in vivo, human; conditions: for patients who reached LDL-C goal at week 24: goal <70 mg/dL very high risk, <100 mg/dL moderate and high risk; for LS mean LDL-C value at week 24: in vivo; for change in LDL-C level from baseline: week 24
Description: The present study was a randomized, double-blind, double-dummy, active-controlled, parallel-group, multi-national, multi-center study in patients with primary hypercholesterolemia and moderate, high, or very high CV risk who are intolerant to statins. The study design is illustrated in FIG. 7.
Primary Efficacy Endpoint: The primary efficacy endpoint was the percent change in calculated LDL-C from baseline to week 24, which was defined as: 100× (calculated LDL-C value at week 24—calculated LDL-C value at baseline)/calculated LDL-C value at baseline. A baseline LDL-C value was needed for each patient as the baseline calculated LDL-C value was the last LDL-C level obtained before the first double-blind study drug injection.
Total-C, HDL-C, TG, ApoB, ApoA-1, and Lp(a) were directly measured by a central laboratory as per a predetermined schedule. Low-density lipoprotein cholesterol was calculated using the Friedewald formula at all visits (except week −15 and the follow-up visit). If TG values exceeded 400 mg/dL (4.52 mmol/L), then the central lab measured (via the beta quantification method) the LDL-C rather than calculate it. Non-HDL-C was calculated by subtracting HDL-C from the total-C. Ratio ApoB/ApoA-1 was calculated.
The double-blind period efficacy endpoint analysis results in the order of statistical hierarchical testing as specified in the above protocol (with multiple testing controlled at the 0.05 significance level) is set forth in Table 12. Primary and key secondary efficacy analyses were performed comparing mAb316P-treated patients to ezetimibe-treated patients. For clarification, the ITT analysis is defined for patients in the ITT population and includes all endpoint assessments in an analysis window, regardless of study treatment dosing status (i.e. includes post-treatment assessments). The on-treatment analysis is defined for patients in the mITT population and includes all endpoint assessments from the first double-blind study drug (capsule or injection, whichever comes first) up to 21 days after the last double-blind study drug injection, or 3 days after the last capsule intake, whichever came first (i.e. includes assessments in the efficacy treatment period). Note: A result is statistically significant if the p-value is s 0.05, in the order of the hierarchical testing.

[3] = test system: patients with primary hypercholesterolemia (heFH and non-FH) who are intolerant to statins; conditions: in vivo
[4] = WK24, ITT analysis, listed as EZE
[5] = WK24, ITT analysis, listed as Ezetimibe

Compound: O=C1[C@H](CC[C@H](O)c2ccc(F)cc2)[C@@H](c2ccc(O)cc2)N1c1ccc(F)cc1 [ezetimibe, reference compound]
- Influenza ([1]; human): 3 (5.9) n (%)
- Apo A-1 LS mean percent change from baseline ([2]; WK12, ITT analysis): LS mean: 3.9%
- Apo B LS mean percent change from baseline ([2]; WK12, ITT analysis): LS mean: −11.6%
- Fasting Triglycerides LS mean percent change from baseline ([2]; WK12, ITT analysis): LS mean: −9.4%
- HDL-C LS mean percent change from baseline ([2]; WK12, ITT analysis): LS mean: 7.6%
- LDL-C LS mean percent change from baseline ([2]; WK12, ITT analysis): LS mean: −15.6%
- Lp(a) LS mean percent change from baseline ([2]; WK12, ITT analysis): LS mean: −4.5%
- Non-HDL-C LS mean percent change from baseline ([2]; WK12, ITT analysis): LS mean: −15.8%
- Total Cholesterol LS mean percent change from baseline ([2]; WK12, ITT analysis): LS mean: −11.6%
- LDL-C LS mean percent change from baseline ([2]; WK12, on-treatment analysis): LS mean: −18.0%
- Apo A-1 LS mean percent change from baseline ([2]; WK24, ITT analysis): LS mean: 2.9%
- Fasting Triglycerides LS mean percent change from baseline ([2]; WK24, ITT analysis): LS mean: −3.5%
- HDL-C LS mean percent change from baseline ([2]; WK24, ITT analysis): LS mean: 6.8%
- LDL-C LS mean percent change from baseline ([2]; WK24, ITT analysis): −14.6%
- Proportion with LDL-C <70 mg/dL ([2]; WK24, ITT analysis): Proportion = 0.8%
- Proportion with Very High CV LDL-C <70 mg/dL OR Moderate/High CV LDL-C <100 mg/dL ([2]; WK24, ITT analysis): Proportion = 4.1%
- Total Cholesterol LS mean percent change from baseline ([2]; WK24, ITT analysis): LS mean: −10.9%
- Apo B LS mean percent change from baseline [2, 4]: −11.2* %
- LDL-C LS mean percent change from baseline [2, 4]: -14.6%
- Lp(a) LS mean percent change from baseline [2, 4]: −7.3* %
- Non-HDL-C LS mean percent change from baseline [2, 4]: −14.6* %
- Apo B LS mean percent change from baseline [2, 5]: LS mean: −11.2%
- LDL-C LS mean percent change from baseline [2, 5]: LS mean: −14.6%
- Lp(a) LS mean percent change from baseline [2, 5]: LS mean: −7.3%
- Non-HDL-C LS mean percent change from baseline [2, 5]: LS mean: −14.6%
- Apo B LS mean percent change from baseline ([2]; WK24, on-treatment analysis): LS mean: −14.4%
- LDL-C LS mean percent change from baseline ([2]; WK24, on-treatment analysis): LS mean: −17.1%
- Non-HDL-C LS mean percent change from baseline ([2]; WK24, on-treatment analysis): LS mean: −17.1%
- Proportion with LDL-C <70 mg/dL ([2]; WK24, on-treatment analysis): Proportion = 0.8%
- Proportion with Very High CV LDL-C <70 mg/dL OR Moderate/High CV LDL-C <100 mg/dL ([2]; WK24, on-treatment analysis): Proportion = 4.2%
- patients who reached LDL-C goal at week 24 [2]: 4.4%
- LS mean LDL-C value at week 24 [2]: 159.9 mg/dL
- change in LDL-C level from baseline [2]: -33 mg/dL
- Cardiac disorders (SOC) ([3]; human): 6 (4.8%) patients (%)
- Ear and labyrinth disorders (SOC) ([3]; human): 4 (3.2%) patients (%)
- General allergic TEAEs (MedDRA SMQ Hypersensitivity) ([3]; human): 9 (7.3%) patients (%)
- Investigations (SOC) ([3]; human): 7 (5.6%) patients (%)
- Psychiatric disorders (SOC) ([3]; human): 5 (4.0%) patients (%)
- Skeletal muscle-related TEAEs (CMQ preferred term) ([3]; human): 40 (32.3%) patients (%)
- TEAEs ([3]; human): 100 (80.6%) patients (%)
- Treatment-emergent SAEs ([3]; human): 10 (8.1%) patients (%)
- Treatment-emergent injection site reactions (ISRs) ([3]; human): 6 (4.8%) patients (%)
- Treatment-emergent neurocognitive disorders ([3]; human): 2 (1.6%) patients (%)
- Treatment-emergent neurologic AEs ([3]; human): 4 (3.2%) patients (%)
- Treatment-emergent skeletal muscle-related events resulting in early treatment discontinuation ([3]; human): 23 (18.5%) patients (%)
- back pain ([3]; human): 5.6%
- early termination due to musculoskeletal and connective tissues disorders SOC events ([3]; human): 26 [21.0%] patients [%]
- fatigue ([3]; human): 3.2%
- headache ([3]; human): 4.8%
- insomnia ([3]; human): 2 (1.6%) reports (%)
- muscle spasms ([3]; human): 7.3%
- muscular weakness ([3]; human): 1.6%
- non-cardiac chest pain (treatment-emergent SAE preferred term) ([3]; human): 4 (3.2%) patients (%)
- palpitations ([3]; human): 2 (1.6%) reports (%)
- paraesthesia ([3]; human): 0%
- patients who prematurely discontinued study treatment due to a TEAE ([3]; human): 31 (25.0%) patients (%)
- patients who prematurely terminated study treatment due to adverse events ([3]; human): 31 (24.8%) patients (%)
- rate of AEs ([3]; human): 81%
- vertigo ([3]; human): 2 (1.6%) reports (%)

Compound: mAb316P: human anti-PCSK9 antibody; heavy chain SEQ ID NO:5, light chain SEQ ID NO:9; HCVR SEQ ID NO:1, LCVR SEQ ID NO:6
- TEAE class infection [1]: 42.3%
- Apo A-1 Diff mAb316P vs ezetimibe ([2]; WK12, ITT analysis): Diff: 1.6%
- Apo A-1 LS mean percent change from baseline ([2]; WK12, ITT analysis): LS mean: 5.5%
- Apo B Diff mAb316P vs ezetimibe ([2]; WK12, ITT analysis): Diff: −24.5%
- Apo B LS mean percent change from baseline ([2]; WK12, ITT analysis): LS mean: −36.1%
- Fasting Triglycerides Diff mAb316P vs ezetimibe ([2]; WK12, ITT analysis): Diff: 1.3%
- Fasting Triglycerides LS mean percent change from baseline ([2]; WK12, ITT analysis): LS mean: −8.1%
- HDL-C Diff mAb316P vs ezetimibe ([2]; WK12, ITT analysis): Diff: 1.4%
- HDL-C LS mean percent change from baseline ([2]; WK12, ITT analysis): LS mean: 9.0%
- LDL-C Diff mAb316P vs ezetimibe ([2]; WK12, ITT analysis): Diff: −31.5%
- LDL-C LS mean percent change from baseline ([2]; WK12, ITT analysis): LS mean: −47.0%
- Lp(a) Diff mAb316P vs ezetimibe ([2]; WK12, ITT analysis): Diff: −17.2%
- Lp(a) LS mean percent change from baseline ([2]; WK12, ITT analysis): LS mean: −21.7%
- Non-HDL-C Diff mAb316P vs ezetimibe ([2]; WK12, ITT analysis): Diff: −25.7%
- Non-HDL-C LS mean percent change from baseline ([2]; WK12, ITT analysis): LS mean: −25.7%
- Total Cholesterol Diff mAb316P vs ezetimibe ([2]; WK12, ITT analysis): Diff: −21.1%
- Total Cholesterol LS mean percent change from baseline ([2]; WK12, ITT analysis): LS mean: −32.7%
- LDL-C Diff mAb316P vs ezetimibe ([2]; WK12, on-treatment analysis): Diff: −33.1%
- LDL-C LS mean percent change from baseline ([2]; WK12, on-treatment analysis): LS mean: −51.2%
- Apo A-1 Diff mAb316P vs ezetimibe ([2]; WK24, ITT analysis): Diff: 1.9%
- Apo A-1 LS mean percent change from baseline ([2]; WK24, ITT analysis): LS mean: 4.8%
- Fasting Triglycerides Diff mAb316P vs ezetimibe ([2]; WK24, ITT analysis): Diff: −5.6%
- Fasting Triglycerides LS mean percent change from baseline ([2]; WK24, ITT analysis): LS mean: −9.2%
- HDL-C Diff mAb316P vs ezetimibe ([2]; WK24, ITT analysis): Diff: 0.9%
- HDL-C LS mean percent change from baseline ([2]; WK24, ITT analysis): LS mean: 7.7%
- Proportion with LDL-C <70 mg/dL ([2]; WK24, ITT analysis): Proportion = 32.5%
- Proportion with Very High CV LDL-C <70 mg/dL OR Moderate/High CV LDL-C <100 mg/dL ([2]; WK24, ITT analysis): Proportion = 41.3%
- Total Cholesterol Diff mAb316P vs ezetimibe ([2]; WK24, ITT analysis): Diff: −20.8%
- Total Cholesterol LS mean percent change from baseline ([2]; WK24, ITT analysis): LS mean: −31.8%
- Apo B Diff mAb316P vs ezetimibe ([2]; WK24, on-treatment analysis): Diff: −28.2%
- Apo B LS mean percent change from baseline ([2]; WK24, on-treatment analysis): LS mean: −42.6%
- LDL-C Diff mAb316P vs ezetimibe ([2]; WK24, on-treatment analysis): Diff: −35.1%
- LDL-C LS mean percent change from baseline ([2]; WK24, on-treatment analysis): LS mean: −52.2%
- Non-HDL-C Diff mAb316P vs ezetimibe ([2]; WK24, on-treatment analysis): Diff: −29.8%
- Non-HDL-C LS mean percent change from baseline ([2]; WK24, on-treatment analysis): LS mean: −46.9%
- Proportion with LDL-C <70 mg/dL ([2]; WK24, on-treatment analysis): Proportion = 39.0%
- Proportion with Very High CV LDL-C <70 mg/dL OR Moderate/High CV LDL-C <100 mg/dL ([2]; WK24, on-treatment analysis): Proportion = 50.4%
- patients who reached LDL-C goal at week 24 [2]: 41.9%
- LS mean LDL-C value at week 24 [2]: 108.5 mg/dL
- change in LDL-C level from baseline [2]: -84 mg/dL
- Cardiac disorders (SOC) [3]: 10 (7.9%) patients (%)
- Ear and labyrinth disorders (SOC) [3]: 8 (6.3%) patients (%)
- General allergic TEAEs (MedDRA SMQ Hypersensitivity) [3]: 12 (9.5%) patients (%)
- Investigations (SOC) [3]: 9 (7.1%) patients (%)
- Psychiatric disorders (SOC) [3]: 9 (7.1%) patients (%)
- Skeletal muscle-related TEAEs (CMQ preferred term) [3]: 34 (27.0%) patients (%)
- TEAEs [3]: 104 (82.5%) patients (%)
- Treatment-emergent SAEs [3]: 12 (9.5%) patients (%)
- Treatment-emergent injection site reactions (ISRs) [3]: 6 (4.8%) patients (%)
- Treatment-emergent neurocognitive disorders [3]: 3 (2.4%) patients (%)
- Treatment-emergent neurologic AEs [3]: 11 (8.7%) patients (%)
- Treatment-emergent skeletal muscle-related events resulting in early treatment discontinuation [3]: 19 (15.1%) patients (%)
- back pain [3]: 4.0%
- early termination due to musculoskeletal and connective tissues disorders SOC events [3]: 20 [15.9%] patients [%]
- fatigue [3]: 4.8%
- headache [3]: 4.8%
- insomnia [3]: 5 (4.0%) reports (%)
- muscle spasms [3]: 4.0%
- muscular weakness [3]: 0.8%
- palpitations [3]: 4 (3.2%) reports (%)
- paraesthesia [3]: 3.2%
- patients who prematurely discontinued study treatment due to a TEAE [3]: 23 (18.3%) patients (%)
- patients who prematurely terminated study treatment due to adverse events [3]: 23 (18.3%) patients (%)
- rate of AEs [3]: 82.5%
- vertigo [3]: 6 (4.8%) reports (%)
- safety and tolerability ([3]; sc): generally safe and well tolerated
